Results taken from patent US5565433A, “Sulfated β-glycolipid derivatives as cell adhesion inhibitors” (Bristol-Myers Squibb Company, priority 1996, dated 1996).

Key:
[1] = molecular target: T1, P-selectin (Homo sapiens, UniProt P16109); assay: P-Selectin Adhesion Receptor Binding: cell-free ELISA, inhibition of P-selectin binding to immobilized sulfatides; conditions: immobilized sulfatide, pH 8.0
T1 construct: consists of the human lectin domain, the EGF domain, and two complement repeats of the human selectins; made in house
T1 sequence (P16109 with tags, fused parts or gaps limits assumed): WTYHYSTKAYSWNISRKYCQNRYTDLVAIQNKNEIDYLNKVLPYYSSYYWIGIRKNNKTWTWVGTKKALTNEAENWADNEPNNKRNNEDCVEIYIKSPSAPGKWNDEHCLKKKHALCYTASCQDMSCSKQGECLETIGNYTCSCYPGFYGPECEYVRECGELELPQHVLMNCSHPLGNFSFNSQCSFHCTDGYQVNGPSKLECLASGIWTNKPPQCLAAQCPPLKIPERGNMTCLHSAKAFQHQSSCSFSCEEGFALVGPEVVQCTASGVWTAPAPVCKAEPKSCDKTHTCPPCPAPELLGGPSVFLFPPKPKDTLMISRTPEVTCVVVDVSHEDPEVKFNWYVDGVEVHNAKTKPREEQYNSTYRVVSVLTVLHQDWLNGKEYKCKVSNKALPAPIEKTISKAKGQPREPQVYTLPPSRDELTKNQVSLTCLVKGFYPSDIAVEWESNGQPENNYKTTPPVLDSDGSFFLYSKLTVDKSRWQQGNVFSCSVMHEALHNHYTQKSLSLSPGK
Text: 1. P-Selectin Adhesion Receptor Binding
P-selectin (GMP140, granule membrane protein-140, PADGEM, or CD62) is a calcium-dependent transmembrane protein found in alpha granules of endothelial cells and platelets. It is an inducible selectin produced on activated endothelium and platelets which recognize alpha(2-3)sialylated and alpha(1-3)fucosylated lactosaminoglycans which include the sequence, Lewis x (Zhou et al., J. Cell. Biol., (1991) 115 (2): 557-564) and sulfatides (3-sulfated galactosyl ceramides, Aruffo, et al., Cell (1991) 67: 35-44). P-selectin may be responsible for the initial adhesion events between endothelium and neutrophils as evidenced by leukocyte rolling induced by P-selectin in flow cells (Lawrence, M., and T. Springer, Cell (1991) 65: 859-873).
Based on the availability of soluble forms of P-selectin prepared as described by Aruffo, A., et al., Cell, 67, 35-44 (1991), a binding ELISA based assay modified from Foxall, et al., J., Cell Biol., 117, 895-902 (1992) was developed to measure inhibitors of P-selectin binding to immobilized sulfatides. Such inhibitors were tested in the assay described below.
0.1 ml of sulfatide (SIGMA) or lysosulfatide (SIGMA) each at 1 μg/ml in MeOH were added to the wells of a 96-well ELISA plate (ProBind, Falcon) and allowed to dry overnight at room temperature. The next day the antigen coated plates were blocked for 1.5 hours at room temperature with 5% BSA (ICN) in buffer containing 20mM Hepes and 0.15 M NaCl, pH 8.0. Wild type P-selectin and mutants thereof were first mixed with HRP-conjugated goat anti-human IgG (Fisher Scientific), serially diluted and then incubated for 30 minutes at 37° C. in buffer containing 20 mM Hepes, 0.15 M NaCl, 1% BSA and 0.8 mM CaCl2, pH 8.0 prior to addition to the BSA blocked plates. Following the 30 minute preincubation, the fusion protein-HRP conjugate immunocomplexes were incubated on the blocked antigen coated plates for 45 minutes at 37° C. in the presence or absence of the test compounds and then washed to remove any unbound proteins. Bound complexes were detected by addition of substrate buffer (95 mM NaOAc.3H2 O, 5 mM citric acid monohydrate, 1.4 mM urea/H2O2) containing 3, 3', 5, 5' Tetramethylbenzidine (SIGMA). Reactions were stopped by the addition of 3N sulfuric acid and the absorbance read on an ELISA reader at dual wavelengths 450 and 630 nm. The efficacy of these compounds was compared to that of sulfatide (positive control) or to lysosulfatide (negative control). The data is obtained as percent inhibition of specific binding [formula] and a plot of dose vs. percent inhibition of Rg binding is generated in which IC50 (μM) is calculated and reported as cell free data in Table 1.

[2] = molecular target: T1, P-selectin; assay: HL-60 Cell Binding to P-selectin Rg; format: cell-based; conditions: HL-60 cells binding to P-selectin Rg coated wells
Procedure: 2. HL-60 Cell Binding to P- and E-Selectin RG
Receptor globulin (Rg) Construction
The chimeric P-and E-selectin receptor globulin (Rg) consists of the human lectin domain, the EGF domain, and two complement repeats of the human selectins fused to the hinge, CH1 and CH2 domains of human IgG1. These proteins were prepared as described by Aruffo, et al., Cell (1991) 67: 35-44; Walz, et al., Science (1990) 250, 1132-1135.
Cell binding assay for Rg
The HL-60 cell line, obtained from the American Type Culture Collection, ATCC No. CCL240, was employed to investigate P-selectin Rg binding. Assays were done in 96-well tissue culture dishes. The wells were first coated with 0.5 ug goat anti-human Fc antiserum overnight, and nonspecific binding sites were blocked by incubation of the wells with 1% nonfat dry milk in phosphate buffered saline (PBS containing 0.9 mM CaCl2 and 0.8 mM MgSO4) for 30 minutes. The Rg was then bound to the anti Fc-coated wells by incubating 50 ng in 50 ul of PBS for two hours. Cells, washed twice and resuspended in PBS to remove traces of medium components, were labeled with 10 uM calcein acetoxy methyl ester for 30 minutes at 3×10^7 cells per ml at room temperature. Serum-containing medium (RPMI with 20% fetal calf serum) was added, and the cells washed, followed by resuspension in PBS and a further spin. The labeled cells, resuspended in PBS, were added to twice washed Rg-containing wells at 200,000 per well. Following a 30 minute incubation with slow shaking, the wells were aspirated and washed three times with PBS to remove unbound cells. To certain wells were added known numbers of cells for determination of a standard curve of fluorescent units per cell. The fluorescence on the plate was quantitated using a fluorescent plate reader. Following subtraction of a blank representing the binding of cells to non-Rg containing wells (<5000 cells), the specific binding to P- or E- selectin was determined.
Inhibitors of cell binding
Test compounds were prepared by dissolution to a final concentration of 20 mg/ml in dimethyl sulfoxide (DMSO), diluted in PBS to 2 mg/ml, and briefly sonicated prior to use. The Rg coated wells were preincubated at room temperature for 15 minutes with the inhibitor, and 200,000 cells were added to yield the final indicated inhibitor concentration in 160 ul of PBS. The data is obtained as percent inhibition of specific binding: [formula] and a plot of dose vs. percent inhibition of Rg binding is generated in which IC50 (μM) is calculated and reported in Table 1.

Row | IC50 [1] | IC50 [2] | Compound
1 | 1.7 µM | 39 µM | CCCCCCCCCCCCC/C=C/[C@@H](O)[C@H](CO[C@@H]1O[C@H](COS(=O)(=O)O)[C@H](OS(=O)(=O)O)[C@H](O)[C@H]1O)NC(=O)CCCCCCCCCCCCCCC [Example 2, (2S,3R,4E)-3-Hydroxy-2-hexadecanoylamino-1-[4,6-di-O-(sodiumoxysulfonyl)-β-D-galactopyranosyloxy]-4-octadecene]
2 | 1 µM | 11 µM | CCCCCCCC/C=C\CCCCCCCCCCCCCC(=O)N[C@@H](CO[C@@H]1O[C@H](COS(=O)(=O)O)[C@H](OC(=O)c2ccccc2)[C@H](OC(=O)c2ccccc2)[C@H]1OS(=O)(=O)O)[C@@H](/C=C/CCCCCCCCCCCCC)OC(=O)c1ccccc1 [Example 7, (2S,3R,4E)-3-Benzoyloxy-1-[3,4-di-O-benzoyl-2,6-di-O-(sodiumoxysulfonyl)-β-D-galactopyranosyloxy]-2-(cis-15-tetracosenoylamino)-4-octadecene]
